Results taken from US20060116325A1, “Methods and compositions for inhibiting hiv-coreceptor interactions” (priority 2001, published 2006).

Experiments:
HIV-1JRFL = HIV-1JRFL infection of monocyte-derived macrophages, p24 ELISA; type: cell-based; settings: for concentration at which significant inhibition of infection was exhibited (as low as): HIV-1JRFL, monocyte-derived macrophages; for inhibition of HIV-1JRFL infection of monocyte-derived macrophages (p24): peptide 1 hr before virus, p24 after 72 hr, FIG. 3
Experimental: Monocyte-derived macrophages were treated with the designated concentrations of the indicated peptide for a period of 1 hr prior to addition of HIV-1JRFL. After 2 hr, cells were washed, and viral replication was determined after 72 hr by p24 analysis. Results are representative of 4 independent experiments.
PBMCs were obtained from whole blood of normal donors and isolated by Ficoll-Paque Plus (Pharmacia Biotech, Piscataway, N.J.) density gradient centrifugation, and plated at a cell density of 2×10^6 cells/ml. Monocyte-derived macrophages (MDM) were generated from adherent human peripheral blood mononuclear cells by culture for 7 days with M-CSF (100 ng/ml). Cultures were maintained in RPMI-1640 medium (Life Technologies, Rockville, Md.) supplemented with 10% heat-inactivated endotoxin-free FCS (Hyclone, Logan, Utah), 10 μg/ml gentamicin, and 1 mM glutamine. Cells were treated with designated concentrations of the exemplary peptides 15K or 15D, and after 1 hr cells were infected with HIV-1IIIB (T cell tropic) or HIV-1JRFL (monocyte tropic) at an multiplicity of infection (MOI) of 0.1. After 2 hr, cells were washed, and cultured for additional 48-72 hr, followed by analysis of HIV replication as determined by quantification of accumulated p24 in the supernatant. The production of p24 was determined by conventional sandwich ELISA, using ELISA plates pre-coated with capture anti-p24 antibodies provided by the AIDS Vaccine Program (SAIC Frederick, NCI-FCRDC, Frederick, Md.). The captured p24 antigen was detected using rabbit anti-HIV-1 anti-p24 antibody, and a secondary goat anti-rabbit IgG (peroxidase-labeled) antibody. The captured p24 protein was detected using a 3,3′,5,5′-tetramethylbenzidine and hydrogen peroxide detection system (KPL Laboratories, Gaithersburg, Md.). The reaction was read spectrophotometrically at 450 nm. No cytotoxicity was detectable following treatment of PBMC with the peptides even at a concentration of 100 μg/ml.
The results described in the preceding Examples indicate that the 15K and 15D peptides effectively block the ability of CCR5 to serve as a receptor to mediate chemotactic responses. Additional experiments were thus carried out to determine the capacity of these peptides to inhibit coreceptor activity mediating cellular entry and infection by HIV-1JRFL (a monocyte-tropic HIV strain), using peripheral blood monocyte-derived macrophages.

CXCR4 = CXCR4 (Homo sapiens, UniProt P61073); experiment: Ca2+ mobilization in THP-1 cells in response to SDF-1α (fura-2); type: cell-based; settings: peptide 500 μM preincubated, SDF-1α 100 ng/ml, FIG. 6
Sequence of CXCR4 (P61073 whole entry): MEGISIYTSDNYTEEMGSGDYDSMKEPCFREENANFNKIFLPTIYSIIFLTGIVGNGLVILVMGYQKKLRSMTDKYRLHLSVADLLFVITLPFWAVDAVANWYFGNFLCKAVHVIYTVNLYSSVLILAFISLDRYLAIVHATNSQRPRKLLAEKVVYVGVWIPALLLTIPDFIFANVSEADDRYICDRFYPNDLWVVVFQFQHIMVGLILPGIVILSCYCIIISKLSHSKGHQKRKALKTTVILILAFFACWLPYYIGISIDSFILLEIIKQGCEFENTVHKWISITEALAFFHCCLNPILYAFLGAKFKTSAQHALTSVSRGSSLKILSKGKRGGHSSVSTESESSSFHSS
Experimental: FIGS. 6A through 6D depict the effect of peptide pre-treatment on the mobilization of intracellular Ca^2+ in THP-1 cells in response to SDF-1α. Cells loaded with fura-2 were preincubated with peptide 15K (FIG. 6C), 15D (FIG. 6B) and 15CW (FIG. 6D) at a final concentration of 500 μM for 3 min prior to stimulation with SDF-1α (100 ng/ml).
THP-1 cells (12×10^6/ml in RPMI 1640 containing 10% FSB) were loaded in the presence of 5 μM fura-2 AM (Molecular Probes, Eugene, Oreg.) at 22° C. for 30 min in the dark. Subsequently, cells were washed three times and resuspended (10^6 cells/ml) in the buffer containing 138 mM sodium chloride, 6 mM potassium chloride, 1 mM calcium chloride, 1 mM magnesium chloride, 10 mM HEPES, pH 7.4,5 mM glucose, and 0.1% bovine serum albumin. 1.93 ml of loaded cells was transferred into a quartz cuvette. 50 μl of a peptide stock solution (2×10^−2 M) was added to the cells, and after 3 min of incubation 20 μl of human SDF-1α (10 μg/ml, PeproTech) was added to a stirred cuvette. The measurements were performed using luminescence spectrophotometer LS50 B (Perkin-Elmer). Ca^2+ mobilization in the cells in response to SDF-1α was measured by analysis of the ratio of fluorescence emitted at 510 nm after sequential excitation at 340 and 380 nm.
The increase of intracellular Ca^2+ concentration mediated by a chemokine receptor in response to a cognate chemokine is a reliable assay for measurement of chemokine agonist activity. The human monocytic cell line THP-1 expresses a high level of CXCR4 and responds well to SDF-1α stimulation (FIG. 6A), so these cells were used to determine whether peptides 15D and 15K could block the activation of CXCR4.

Substance	concentration at which significant inhibition of infection was exhibited (as low as) (HIV-1JRFL)	inhibition of HIV-1JRFL infection of monocyte-derived macrophages (p24) (HIV-1JRFL)	inhibition of Ca2+ mobilization in response to SDF-1α (CXCR4)
I R K A H C N I S R A D W N D [Peptide 15D]	10 ng/mL	significantly reduced monocyte lineage target cell infection	completely inhibited
IRKAHCNISRAKWND [Peptide 15K]	10 ng/mL	significantly reduced monocyte lineage target cell infection	inhibited Ca^2+ mobilization although less efficiently than 15D
